Tests used:
[1] = Times to onset, minimal and maximal, observed in the indexed observations. [column 'DELAI' in source]; details: human
[2] = human
[3] = human; remark: listed apart in the source
[4] = human; remark: listed apart in the source
[5] = human; remark: listed apart in the source
[6] = human; remark: listed apart in the source
[7] = human, serum
[8] = human, serum; remark: listed apart in the source
[9] = human; remark: listed apart in the source
[10] = human; remark: listed apart in the source
[11] = Highest frequency of moderate liver toxicity observed during clinical trials, expressed as a percentage. [column '% BIOL' in source]; details: human
[12] = human; remark: listed apart in the source
[13] = human, serum, 4383 h
[14] = human; remark: listed apart in the source
[15] = Highest frequency of acute liver toxicity observed during clinical trials, expressed as a percentage. [column '% AIGUE' in source]; details: human
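Throughout, for Hepatotoxicity (association with vascular disease): count of indexed literature references reporting vascular liver injury in humans, e.g. peliosis hepatitis, hepatic veno-occlusive disease or Budd-Chiari syndrome.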
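Throughout, for Hepatotoxicity (benign tumour): value is a count of indexed literature references citing a benign tumour confirmed by histopathology.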
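Throughout, for Hepatotoxicity (choleostasis): human cholestatic liver injury, shown by histopathology or by peak ALT or AST elevation over alkaline phosphatase ratio below 2, value counts indexed literature reports.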
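Throughout, for Hepatotoxicity (chronic liver disease): chronic liver injury confirmed by histopathology or persistently raised serum aminotransferase activity beyond 6 months, value given as the count of indexed literature references.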
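Throughout, for Hepatotoxicity (cirrhosis): value is a count of indexed literature references reporting cirrhosis confirmed by histopathology.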
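Throughout, for Hepatotoxicity (cytolytic): human cytolytic liver injury, shown by histopathology or by a ratio above 5 of peak ALT or AST elevation to alkaline phosphatase elevation, value counts indexed references.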
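Throughout, for Hepatotoxicity (granulomatous hepatitis): value is a count of indexed literature references reporting granulomatous liver disease confirmed by histopathology.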
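Throughout, for Hepatotoxicity (malignant tumour): malignant tumour confirmed by histopathology, value gives the count of indexed literature references reporting it.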
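Throughout, for Hepatotoxicity (severe hepatitis): human clinical data: severe hepatitis, meaning potentially life-threatening liver failure or clinically observed cases, the value counts how many indexed literature references report it.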
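Throughout, for Hepatotoxicity (steatosis): steatosis confirmed by histopathology, value is the count of indexed references.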

SMILES | Hepatotoxicity (time to onset) [1] | Hepatotoxicity (malignant tumour) [2] | Hepatotoxicity (granulomatous hepatitis) [3] | Hepatotoxicity (cirrhosis) [4] | Hepatotoxicity (benign tumour) [5] | Hepatotoxicity (association with vascular disease) [6] | Hepatotoxicity (moderate) [7] | Hepatotoxicity (acute) [8] | Hepatotoxicity (cytolytic) [9] | Hepatotoxicity (steatosis) [10] | Hepatotoxicity (moderate) [11] | Hepatotoxicity (severe hepatitis) [12] | Hepatotoxicity (chronic liver disease) [13] | Hepatotoxicity (choleostasis) [14] | Hepatotoxicity (acute) [15] | Hepatotoxicity (moderate) ([11]; Liver) | Hepatotoxicity (severe hepatitis) ([12]; Liver) | Hepatotoxicity (acute) ([15]; Liver)
CCCC(C)(COC(N)=O)COC(=O)NC(C)C (stereo not given) [CARISOPRODOL] | 2 weeks | 0 | 0 | 0 | 0 | 0 | 0 | 1 | 1 | 0 | 0% | 0 | 0 | 0 | 0% | – | – | –
CCCCNc1cc(C(=O)O)cc(S(N)(=O)=O)c1Oc1ccccc1 [BUMETANIDE] | 2 weeks - 6 months | 0 | 0 | 0 | 0 | 0 | 3 | 0 | 0 | 0 | – | – | 0 | 0 | – | 1.1% | 0 | 0%
CCN[C@@H](C)Cc1cccc(C(F)(F)F)c1 [DEXFENFLURAMINE] | 4 years | 0 | 0 | 1 | 0 | 0 | 0 | 0 | 0 | 0 | 0% | 0 | 0 | 0 | 0% | – | – | –
[H]/N=C(\N/C(=N/[H])Nc1ccc(Cl)cc1)NC(C)C [PROGUANIL] | 6 weeks | 0 | 0 | 0 | 0 | 0 | 1 | 1 | 1 | 0 | 16% | 0 | 0 | 0 | 0% | – | – | –
CN(C)C(=O)OC1N=C(c2ccccc2)c2cc(Cl)ccc2N(C)C1=O (stereo not given) [CAMAZEPAM] | 3 months | 0 | 0 | 0 | 0 | 0 | 0 | 1 | 1 | 0 | 0% | 0 | 0 | 0 | 0% | – | – | –
O=c1[nH]c2ccccc2n1CCCN1CCC(n2c(=O)[nH]c3cc(Cl)ccc32)CC1 [DOMPERIDONE] | < 1 week | 0 | 0 | 0 | 0 | 0 | 0 | 1 | 1 | 0 | 0% | 0 | 0 | 0 | 0% | – | – | –
C1CC1 [CYCLOPROPANE] | 1 day - 2 weeks | 0 | 0 | 0 | 0 | 0 | 0 | 3 | 3 | 0 | 0% | 2 | 0 | 0 | 0% | – | – | –
C[C@H]1CC(=O)C[C@@H]2CC[C@H]3[C@@H]4CC[C@H](O)[C@@]4(C)CC[C@@H]3[C@]21C [MESTEROLONE] | 2 years | 0 | 0 | 0 | 0 | 0 | 0 | 1 | 1 | 0 | 0% | 0 | 0 | 0 | 0% | – | – | –
CC(=O)OCC(=O)NCCCOc1cccc(CN2CCCCC2)c1 [ROXATIDINE ACETATE] | 4 weeks | 0 | 0 | 0 | 0 | 0 | 2 | 1 | 0 | 0 | 0.4% | 0 | 0 | 0 | 0.5% | – | – | –
CCOC(=O)[C@H](CCc1ccccc1)N[C@@H](C)C(=O)N1[C@H](C(=O)O)C[C@H]2CCCC[C@@H]21 [TRANDOLAPRIL] | 2 weeks | 0 | 0 | 0 | 0 | 0 | 2 | 1 | 0 | 0 | 1.1% | 0 | 0 | 1 | 0% | – | – | –
COc1ccc(CN2CCNCC2)c(OC)c1OC [TRIMETAZIDINE] | 2 weeks | 0 | 0 | 0 | 0 | 0 | 0 | 1 | 0 | 0 | 0% | 0 | 0 | 1 | 0% | – | – | –

From ChEMBL document CHEMBL3137667, “[Drug-induced liver injury; fourteenth updated edition of the bibliographic database of liver injuries and related drugs]” (Gastroenterol Clin Biol, 2004)
